# Experimental data reported in patent US12180192B2, “Modulators of THR-β and methods of use thereof” (ALIGOS THERAPEUTICS, INC., priority 2019, dated 2024).
# Where two headings read alike, the source gives them in different places.
# Columns and labels:
# [1] = tested on: CPT1A gene expression in Huh-7 cells; test: Huh-7 differential gene expression, CPT1A RT-qPCR (Assay 3); format: cell-based; details: Homo sapiens, Huh-7, 24 h; for EC50: read-out: Activity category Assay 3 EC50; for Emax: read-out: Activity category Assay 3 Emax
# Method: Huh-7 Differential Gene Expression (Assay 3)
# Fetal bovine serum (FBS) was incubated with washed resin (50 mg resin/mL FBS; resin weight is dry weight of resin prior to washing) for 5 hr at room temperature on a rotor. The FBS was separated from the resin via centrifugation and incubated with new, washed resin for 18 h at room temperature on a rotor.
# Cell Culture and Drug Treatment
# Huh-7 cells were cultured in DMEM (10-013-CM, Corning) supplemented with 10% FBS and 1% Pen-Strep at 37° C. under 5% C02. When 70-80% confluence was reached, the cells were removed by trypsinization. The medium was aspirated from the cell culture dish, the cell monolayer was washed with 1×PBS, and 0.05% trypsin, 0.53 mM EDTA (25-052-CV, Corning) solution was added to the dish. After 3 min incubation, the cells were detached completely by repeatedly pipetting solution onto the monolayer. Equal volume of DMEM supplemented with 10% rFBS and 1% Pen-Strep (TH-depleted DMEM) was added to the dish to inactivate the trypsin. The cell suspension was centrifuged at 350×g at room temperature for 3 min. The supernatant was aspirated out and the cell pellet was resuspended in TH-depleted DMEM. […] After 24 hr incubation, the media was replaced with treatment media. All compounds were serially diluted in DMSO and final concentrations were reached by dilution in TH-depleted DMEM (0.1% DMSO). The cells were incubated in treatment media for 24 hr. Treatments were performed in biological duplicates.
# After 24 hr in treatment media, the cells were lysed directly on the culture plates and cDNA was produced using the TaqMan™ Fast Advanced Cells-to-CT™ Kit (A35374, Invitrogen) and following the manufacturer's protocol. RT-qPCR for CPT1A (Hs00912671_m1) and two housekeeping genes, ACTB (Hs01060665_g1) and TFG (Hs02832013_g1), was performed using TaqMan™ Fast Advanced Master Mix. RT-qPCR reactions were run on the qTOWER^3 84 G (Analytik Jena) in technical duplicates.
# ΔRn values were obtained from the qPCRsoft384 1.0 software and CPT1A gene expression was quantified via the 2-ΔΔCt method. Dose-response curves were generated using GraphPad Prism 8 using four parameter logistic equation without top constraint to derive EC50 and Emax.
# [2] = biological target: T1, THR beta (Homo sapiens, UniProt P10828); test: HEK293T THR beta/RXR luciferase reporter assay (Assay 2); format: cell-based; details: for EC50: THR-beta, HEK293T reporter assay, read-out: Activity category Assay 2 (EC50, THR-beta agonist); for Emax: HEK-293T, Table 5, Assay 2, THRβ, read-out: Activity category Assay 2 THRβ (Emax)
# T1 construct: expressed in transfected cells; host or cells: HEK293T (ATCC CRL-3216)
# T1 sequence (P10828 1-461): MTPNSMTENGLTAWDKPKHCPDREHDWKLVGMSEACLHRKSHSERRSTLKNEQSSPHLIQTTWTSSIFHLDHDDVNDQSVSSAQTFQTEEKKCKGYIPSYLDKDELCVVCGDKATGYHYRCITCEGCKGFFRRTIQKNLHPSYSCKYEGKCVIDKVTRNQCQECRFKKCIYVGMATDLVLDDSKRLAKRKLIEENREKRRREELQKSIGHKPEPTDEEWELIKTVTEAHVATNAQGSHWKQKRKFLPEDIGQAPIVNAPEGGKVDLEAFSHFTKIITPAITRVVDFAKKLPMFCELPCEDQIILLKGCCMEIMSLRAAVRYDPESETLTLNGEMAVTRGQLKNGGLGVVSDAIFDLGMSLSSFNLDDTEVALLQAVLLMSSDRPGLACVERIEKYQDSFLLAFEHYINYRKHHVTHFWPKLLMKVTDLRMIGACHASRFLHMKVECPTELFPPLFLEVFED
# T1 sequence (P19793 1-462 partner): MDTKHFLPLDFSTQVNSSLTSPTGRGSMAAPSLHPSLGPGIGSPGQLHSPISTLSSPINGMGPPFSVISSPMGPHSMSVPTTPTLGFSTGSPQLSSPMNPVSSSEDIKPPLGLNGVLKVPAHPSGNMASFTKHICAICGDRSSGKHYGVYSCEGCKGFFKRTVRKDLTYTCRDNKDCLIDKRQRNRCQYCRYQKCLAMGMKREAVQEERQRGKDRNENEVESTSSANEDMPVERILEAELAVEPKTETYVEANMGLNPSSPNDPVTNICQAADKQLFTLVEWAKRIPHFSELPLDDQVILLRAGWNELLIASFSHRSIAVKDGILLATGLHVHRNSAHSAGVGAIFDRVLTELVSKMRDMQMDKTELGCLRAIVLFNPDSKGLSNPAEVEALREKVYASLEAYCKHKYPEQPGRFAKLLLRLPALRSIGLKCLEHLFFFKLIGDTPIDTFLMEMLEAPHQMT
# Procedure, shortened: (§1)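 Compounds tested as ten-point five-fold dilution series for 18-24 h on transiently transfected HEK293T cells carrying TRE-driven luciferase plus RXR and either THR alpha or beta expression plasmids. Read-out by One-Glo luminescence, expressed as percent agonism relative to negative and positive controls.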
# [3] = biological target: T2, human thyroid receptor beta ligand-binding domain (LBD) (Homo sapiens, UniProt P10828); test: TR-FRET thyroid receptor beta coactivator assay (THR biochemical assay, Assay 1); details: for EC50: THR-beta, TR-FRET coactivator assay, read-out: Activity category Assay 1 (EC50, THR-beta agonist); for Emax: Table 5, Assay 1, THRβ, read-out: Activity category Assay 1 THRβ (Emax)
# T2 construct: purchased Invitrogen
# T2 sequence (P10828 217-461 limits assumed): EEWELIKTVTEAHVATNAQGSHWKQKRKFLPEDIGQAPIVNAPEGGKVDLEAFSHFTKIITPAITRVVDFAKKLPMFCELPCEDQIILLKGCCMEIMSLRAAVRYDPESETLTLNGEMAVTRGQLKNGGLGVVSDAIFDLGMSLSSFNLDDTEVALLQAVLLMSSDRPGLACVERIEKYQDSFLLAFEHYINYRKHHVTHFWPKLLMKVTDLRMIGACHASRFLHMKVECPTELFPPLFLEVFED
# Procedure, shortened: (§2)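 Agonist-driven coactivator recruitment measured by TR-FRET: terbium anti-GST antibody (2 nM) bound to GST-LBD of TRβ or TRα (1 nM final, stated for β), with fluorescein SRC2-2 peptide at 200 nM. Compounds at 1% DMSO. Read after 1 h, room temperature, protected from light.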
# [4] = biological target: T3, human thyroid receptor alpha ligand-binding domain (LBD) (Homo sapiens, UniProt P10827); test: TR-FRET thyroid receptor alpha coactivator assay (THR biochemical assay, Assay 1); details: for EC50: Table 4, THR-alpha, read-out: Activity category Assay 1 (EC50, THR-alpha agonist activity); for Emax: Table 5, THRα, read-out: Activity category Assay 1 THRα (Emax)
# T3 construct: purchased Invitrogen
# Procedure, shortened: as §2
# [5] = biological target: T4, THR alpha (Homo sapiens, UniProt P10827); test: HEK293T THR alpha/RXR luciferase reporter assay (Assay 2); format: cell-based; details: Assay 2; for Emax: HEK-293T, Table 5, THRα, read-out: Activity category Assay 2 THRα (Emax); for EC50: Table 4, THR-alpha, read-out: Activity category Assay 2 (EC50, THR-alpha agonist activity)
# T4 construct: expressed in transfected cells; host or cells: HEK293T (ATCC CRL-3216)
# T4 sequence (P10827 1-410 isoform P10827-2): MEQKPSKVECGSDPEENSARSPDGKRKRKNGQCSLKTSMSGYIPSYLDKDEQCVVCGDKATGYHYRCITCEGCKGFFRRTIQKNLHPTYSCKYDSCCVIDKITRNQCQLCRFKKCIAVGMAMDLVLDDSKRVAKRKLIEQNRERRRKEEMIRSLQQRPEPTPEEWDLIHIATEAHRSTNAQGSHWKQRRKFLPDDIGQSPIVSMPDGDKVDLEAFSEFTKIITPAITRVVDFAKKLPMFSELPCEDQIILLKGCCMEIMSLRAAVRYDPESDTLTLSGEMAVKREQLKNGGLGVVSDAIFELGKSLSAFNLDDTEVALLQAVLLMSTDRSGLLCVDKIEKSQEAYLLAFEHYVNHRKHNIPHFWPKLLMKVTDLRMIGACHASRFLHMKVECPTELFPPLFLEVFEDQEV
# T4 sequence (P19793 1-462 partner): T1 sequence (P19793 1-462 partner)
# Procedure, shortened: as §1
# [6] = Table 6, Huh-7 cells, CPT1A, 24 hr treatment
SMILES,"EC50 [1, 6]","Emax [1, 6]",EC50 [2],EC50 [3],Emax [3],EC50 [4],Emax [4],Emax [5],Emax [2],EC50 [5],EC50 [1],Emax [1]
"C#Cc1nn(-c2cc(Cl)c(Oc3cc(C(C)C)c(=O)[nH]n3)c(Cl)c2)c(=O)[nH]c1=O [Compound 11, 2-[3,5-dichloro-4-[(5-isopropyl-6-oxo-1H-pyridazin-3-yl)oxy]phenyl]-6-ethynyl-4H-1,2,4-triazine-3,5-dione]",< 100 nM,> 75%,–,–,–,–,–,–,–,–,–,–
"CC(C)c1cc(Oc2c(Cl)cc(-n3nc(CC(=O)O)c(=O)[nH]c3=O)cc2Cl)n[nH]c1=O [Compound 13, 2-(2-(3,5-dichloro-4-((5-isopropyl-6-oxo-1,6-dihydropyridazin-3-yl)oxy)phenyl)-3,5-dioxo-2,3,4,5-tetra-hydro-1,2,4-triazin-6-yl)acetic acid]",> 100 nM,> 75%,–,–,–,–,–,–,–,–,–,–
"Nc1nn(-c2cc(Cl)c(Oc3cc(C4CCCC4)c(=O)[nH]n3)c(Cl)c2)c(=O)[nH]c1=O [Compound 42, 6-amino-2-(3,5-dichloro-4-((5-cyclopentyl-6-oxo-1,6-dihydropyridazin-3-yl)oxy)phenyl)-1,2,4-triazine-3,5(2H,4H)-dione]",< 100 nM,50 to 75%,–,–,–,–,–,–,–,–,–,–
"Cc1cc2cc(Oc3c(Cl)cc(-n4nc(C#N)c(=O)[nH]c4=O)cc3Cl)ccc2[nH]c1=O [Compound 154, 2-[3,5-dichloro-4-[(3-methyl-2-oxo-1H-quinolin-6-yl)oxy]phenyl]-3,5-dioxo-1,2,4-triazine-6-carbonitrile]",–,–,> 10000 nM,50 to 250 nM,< 50%,> 25000 nM,< 50%,< 50%,–,–,–,–
Nc1nn(-c2cc(Cl)c(Oc3cc(C4Cc5ccccc5C4)c(=O)[nH]n3)c(Cl)c2)c(=O)[nH]c1=O [Compound 155],–,–,250 to 1000 nM,50 to 250 nM,< 50%,> 25000 nM,< 50%,< 50%,< 50%,> 10000 nM,–,–
"Nc1nn(-c2cc(Cl)c(Oc3cc(C4CCc5ccccc54)c(=O)[nH]n3)c(Cl)c2)c(=O)[nH]c1=O (stereo not drawn) [Compound 156, 6-amino-2-(3,5-dichloro-4-[[5-(2,3-dihydro-1H-inden-1-yl)-6-oxo-1H-pyridazin-3-yl]oxy]phenyl)-4H-1,2,4-triazine-3,5-dione]",–,–,50 to 250 nM,< 50 nM,< 50%,50 to 250 nM,< 50%,< 50%,50 to 75%,1000 to 10000 nM,–,–
"CC1(C)CN(c2cc(Oc3c(Cl)cc(-n4nc(N)c(=O)[nH]c4=O)cc3Cl)n[nH]c2=O)C1 [Compound 159, 6-amino-2-(3,5-dichloro-4-[[5-(3,3-dimethylazetidin-1-yl)-6-oxo-1H-pyridazin-3-yl]oxy]phenyl)-4H-1,2,4-triazine-3,5-dione]",–,–,50 to 250 nM,50 to 250 nM,< 50%,250 to 1000 nM,< 50%,< 50%,50 to 75%,1000 to 10000 nM,–,–
"Nc1nn(-c2cc(Cl)c(Oc3cc(Cc4ccc(=O)[nH]n4)c(=O)[nH]n3)c(Cl)c2)c(=O)[nH]c1=O [Compound 160, 6-amino-2-[3,5-dichloro-4-([6-oxo-5-[(6-oxo-1H-pyridazin-3-yl)methyl]-1H-pyridazin-3-yl]oxy)phenyl]-4H-1,2,4-triazine-3,5-dione]",–,–,> 10000 nM,1000 to 25000 nM,< 50%,1000 to 25000 nM,< 50%,< 50%,< 50%,> 10000 nM,–,–
"Nc1nn(-c2cc(Cl)c(Oc3cc(Cc4ccc(O)cn4)c(=O)[nH]n3)c(Cl)c2)c(=O)[nH]c1=O [Compound 161, 6-amino-2-[3,5-dichloro-4-([5-[(5-hydroxypyridin-2-yl)methyl]-6-oxo-1H-pyridazin-3-yl]oxy)phenyl]-4H-1,2,4-triazine-3,5-dione]",–,–,1000 to 10000 nM,250 to 1000 nM,< 50%,250 to 1000 nM,< 50%,< 50%,< 50%,> 10000 nM,–,–
"N[C@@H](Cc1cc(I)c(Oc2ccc(O)c(I)c2)c(I)c1)C(=O)O [Compound T3, triiodothyronine, reference compound]",–,–,–,–,–,–,–,–,–,–,< 100 nM,> 75%
